According to patent publication US20240271096A1, “EFFICIENT DIFFERENTIATION OF SECOND HEART FIELD CARDIAC PROGENITOR CELLS AND RIGHT VENTRICLE CARDIOMYOCYTES FROM HUMAN PLURIPOTENT STEM CELLS” (Wisconsin Alumni Research Foundation, priority 2023, published 2024):

Key:
SMAD1/5 = experiment: Western blotting of SMAD1/5 phosphorylation in GiWi protocol; format: cell-based, human; settings: insulin added on differentiation day 0; measured on day 3
Source text: Using the cell lysis solution contained in the Minute Total Protein Extraction Kit for Animal Cultured Cells/Tissues (Invent Biotechnologies, Plymouth, MN, United States) with Protease Inhibitor Cocktail Set III (×100) (Fujifilm Wako Pure Chemical Corporation, Osaka, Japan) and Phosphatase Inhibitor Cocktail Solution II (×100) (Fujifilm Wako Pure Chemical Corporation), cells at day 3 of differentiation were lysed and proteins were extracted according to the manufacturer's instructions. Protein concentration was measured with a Pierce BCA Protein Assay Kit (Thermo Fisher Scientific), iMark microplate reader and Microplate Manager 6 software (Bio-Rad, Hercules, CA, USA). Fifty micrograms of protein combined with Laemmli sample buffer (Bio-Rad) were boiled at 95° C. for 5 minutes and then loaded onto 10% Mini-PROTEAN TGX Precast Gels (Bio-Rad). Proteins were transferred to nitrocellulose membranes and blocking was performed using Tris buffered saline with Tween20 with 5% nonfat dry milk for 1 hour at room temperature. […] Immunoblotted proteins were detected by ECL Prime Western blotting detection reagents and ImageQuant LAS4000 mini (GE Healthcare, Chicago, IL, USA).

reporterless hiPSC line = experiment: Immunostaining of marker proteins in hiPSC-derived cardiac progenitor cells and cardiomyocytes; format: cell-based, human
Procedure: For LV-cardiomyocyte differentiation, cardiac differentiation was performed according to the protocol published by (Lian et al., 2012, Proc Natl Acad Sci USA 109:[…]-57). Cells were dissociated with StemPro Accutase Cell Dissociation Reagent at 37° C. for 5 minutes. HESCs were seeded on Matrigel-coated 24-well plates (Corning) in StemFlex Medium supplemented with 10 μmol/[…] were seeded on iMatrix-511-coated 12-well plates (Corning) in StemFit A[…] supplemented with 10 μmol/[…] at seeding densities of 1×10^5 cells/cm^2 for hESCs and 1.25-2.5×10^4 cells/cm^2 for hiPSCs. Cells were cultured for 4 days until the start of differentiation (day 0). On day 0, the medium was changed to RPMI 1640 Medium (Thermo Fisher Scientific) supplemented with B-27 Supplement minus insulin (Thermo Fisher Scientific) (RPMI/B27-insulin) or B-27 Supplement with insulin (Thermo Fisher Scientific), and 12 μmol/L CHIR 99021 (SelleckChem, Houston, TX, United States), and the cells incubated in this medium for 24 h (day 1). On day 1, the medium was changed to RPMI/B27-insulin. […] On day 3, the medium was changed to RPMI/B27-insulin supplemented with 5 μmol/L IWP2 (SelleckChem) and on day 5, the medium was changed to 1 ml RPMI/B27-insulin. From day 7, the cells were cultured with RPMI/B27-insulin, and the cells were fed every other day. On day 12, the cells were washed with PBS (Thermo Fisher Scientific) and cultured with DMEM or RPMI, no glucose supplemented with 8 mmol/L L-(+)-Lactic acid (Merck) (Tohyama et al., 2013 Cell Stem Cell, 12:127-37). The medium was changed every other day until day 17. After day 17, the cells were cultured with RPMI/B27 and fed every 2 to 3 days. For long-term culture, the cells were dissociated with TrypLETM Select Enzyme (10×) (Thermo Fisher Scientific) at 37° C. for 15-20 minutes and seeded on Matrigel- or iMatrix-511-coated plates. […] For FIG. 15A and FIG. 15B, dorsomorphin (DM) or 3 μg/L insulin were added on day 0 (for 24 hours), 1, 3, or 5 (for 48 hours). Cells were plated on iMatrix-511-coated plates and fixed in 4% paraformaldehyde (Nacalai, Kyoto, Japan) for 15 minutes. Cells were permeabilized with 0.1% Triton X-100 (Sigma-Aldrich, St. Louis, MO, United States)/PBS and blocked with 10% goat serum (Sigma-Aldrich). Primary and secondary antibodies were diluted in 0.1% Triton X-100/PBS with 5% goat serum and stained with Hoechst 33342 (Thermo Fisher Scientific) at 1 μg/mL, mouse anti-cardiac troponin T monoclonal IgG1 (GTX28295, GeneTex, Irvine, CA, United States) diluted at 1:16000, mouse anti-α-actinin monoclonal IgG1 (A7811, Sigma-Aldrich) diluted at 1:1000, rabbit anti-MLC2v monoclonal IgG (ab92721, Abcam, Cambridge, United Kingdom) diluted at 1:500, rabbit anti-CXCR4 monoclonal IgG (ab181020, Abcam) diluted at 1:2000, rabbit anti-NKX2-5 monoclonal IgG (Cat #. […], Cell Signaling Technology, Danvers, MA, United States) diluted at 1:2500, mouse anti-Nav1.5 (Car #. ASC-013, Alomone Labs) diluted at 1:1000, rabbit anti-connexin 43 (Cat #. 83649, Cell Signaling Technology) diluted at 1:1000, and mouse anti-TBX5 monoclonal IgG2a (Cat #. sc-515536, Santa Cruz Biotechnology, Dallas, TX, United States) diluted at 1:500. These cells were then incubated with a secondary antibody, goat anti-mouse or rabbit polyclonal IgG conjugated with iFluor 488 or 555 (AAT Bioquest, Sunnyvale, CA, United States) diluted at 1:1000, for 1 hour at room temperature. The cells were then observed with IX71 (Olympus, Tokyo, Japan) or EVOS FL Auto (Thermo Fisher Scientific) and images processed with ImageJ ([…] al., 2012, Nat Methods, 9:671-5).

insulin
phosphorylation of SMAD1/5 (SMAD1/5): suppressed | RV cardiomyocytes differentiation (reporterless hiPSC line; added on day 1 for 48 hours): induced optimal RV cardiomyocytes differentiation | CXCR4 immunostaining (reporterless hiPSC line; insulin day 0 to day 1, day 6): upregulation | TBX5 expression (immunostaining) (reporterless hiPSC line; insulin day 0 to day 1, day 10): greatly reduced | expression of pan-cardiomyocyte markers NKX2-5 and cardiac Troponin T (cTnT) (reporterless hiPSC line; insulin day 0 to day 1, day 10): expressed | immunostaining of TBX5 (reporterless hiPSC line; insulin on day 1 for 48 hours (D1-3)): low
